According to PubChem BioAssay (NCI):
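Protocol summary: plate cells (96-well), add compound at 5 concentrations, incubate 48 h, interpolate endpoints linearly. GI50 marks 50% less growth. At the TGI there is no net growth.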

Columns and labels:
Assay in all cases: NCI-60 cell line screen, 48 h
SF-268 CNS = system: SF-268 CNS
K-562 leukemia = system: K-562 leukemia
U251 CNS = system: U251 CNS
SNB-19 CNS = system: SNB-19 CNS
SW-620 colon = system: SW-620 colon
SNB-75 CNS = system: SNB-75 CNS
IGROV1 ovarian = system: IGROV1 ovarian
MCF7 breast = system: MCF7 breast
UACC-257 melanoma = system: UACC-257 melanoma
NCI-H522 lung = system: NCI-H522 lung
HT29 colon = system: HT29 colon
SF-295 CNS = system: SF-295 CNS
OVCAR-3 ovarian = system: OVCAR-3 ovarian
HOP-92 NSCLC = system: HOP-92 NSCLC
HOP-62 NSCLC = system: HOP-62 NSCLC
LOX IMVI melanoma = system: LOX IMVI melanoma
MDA-MB-231 breast = system: MDA-MB-231 breast
MALME-3M melanoma = system: MALME-3M melanoma
A549 NSCLC = system: A549 NSCLC
PC-3 prostate = system: PC-3 prostate
ACHN renal = system: ACHN renal
RPMI-8226 leukemia = system: RPMI-8226 leukemia
MOLT-4 leukemia = system: MOLT-4 leukemia
DU-145 prostate = system: DU-145 prostate
NCI-H23 lung = system: NCI-H23 lung
NCI-H460 lung = system: NCI-H460 lung
MDA-MB-435 = system: MDA-MB-435
NCI-H226 lung = system: NCI-H226 lung
CCRF-CEM leukemia = system: CCRF-CEM leukemia
HS 578T breast = system: HS 578T breast
HCC-2998 colon = system: HCC-2998 colon
RXF 393 renal = system: RXF 393 renal
NCI/ADR-RES ovarian = system: NCI/ADR-RES ovarian
M14 melanoma = system: M14 melanoma
SR leukemia = system: SR leukemia
CAKI-1 renal = system: CAKI-1 renal
BT-549 breast = system: BT-549 breast
EKVX NSCLC = system: EKVX NSCLC
HL-60(TB) leukemia = system: HL-60(TB) leukemia
SK-MEL-5 melanoma = system: SK-MEL-5 melanoma
COLO 205 colon = system: COLO 205 colon
T-47D breast = system: T-47D breast
SF-539 CNS = system: SF-539 CNS
OVCAR-8 ovarian = system: OVCAR-8 ovarian
SN12C renal = system: SN12C renal
UACC-62 melanoma = system: UACC-62 melanoma
HCT-15 colon = system: HCT-15 colon
UO-31 renal = system: UO-31 renal
786-0 renal = system: 786-0 renal
HCT-116 colon = system: HCT-116 colon
SK-MEL-2 melanoma = system: SK-MEL-2 melanoma
OVCAR-4 ovarian = system: OVCAR-4 ovarian
TK-10 renal = system: TK-10 renal
A498 renal = system: A498 renal
OVCAR-5 ovarian = system: OVCAR-5 ovarian
SK-OV-3 ovarian = system: SK-OV-3 ovarian
SK-MEL-28 melanoma = system: SK-MEL-28 melanoma
KM12 colon = system: KM12 colon

In the case of `CCCCCCC1N=C(N)N=C(N)N1c1cccc(Cl)c1` (stereo unspecified), the GI50 (SF-268 CNS) is reported as 0.0591 µM, the TGI (SF-268 CNS) is reported as 11.5 µM and the GI50 (K-562 leukemia) is reported as 0.841 µM. The TGI (K-562 leukemia) was 24.6 µM, the GI50 (U251 CNS) was 0.0616 µM and the TGI (U251 CNS) was 13.7 µM. For the same compound, the GI50 (SNB-19 CNS) was 0.255 µM, the TGI (SNB-19 CNS) was 8.58 µM and the GI50 (SW-620 colon) was 0.188 µM. It also gave a TGI (SW-620 colon) of 15.9 µM, a GI50 (SNB-75 CNS) of 0.347 µM and a TGI (SNB-75 CNS) of 6.75 µM. The GI50 (IGROV1 ovarian) was 0.199 µM, the TGI (IGROV1 ovarian) was 5.88 µM and the GI50 (MCF7 breast) was 0.368 µM. It also gave a TGI (MCF7 breast) of 12.7 µM, a GI50 (UACC-257 melanoma) of 6.37 µM and a TGI (UACC-257 melanoma) of 29.5 µM. It also gave a GI50 (NCI-H522 lung) of 0.701 µM, a TGI (NCI-H522 lung) of 14.1 µM and a GI50 (HT29 colon) of 0.0514 µM. The TGI (HT29 colon) was 7.23 µM, the GI50 (SF-295 CNS) was 0.102 µM and the TGI (SF-295 CNS) was 1.71 µM. The GI50 (OVCAR-3 ovarian) was 0.863 µM, the TGI (OVCAR-3 ovarian) was 10.5 µM and the GI50 (HOP-92 NSCLC) was 0.491 µM. The TGI (HOP-92 NSCLC) was 5.94 µM, the GI50 (HOP-62 NSCLC) was 0.436 µM and the TGI (HOP-62 NSCLC) was 10.9 µM. The GI50 (LOX IMVI melanoma) was 0.0917 µM, the TGI (LOX IMVI melanoma) was 13.2 µM and the GI50 (MDA-MB-231 breast) was 1.93 µM. It also gave a TGI (MDA-MB-231 breast) of 22.5 µM, a GI50 (MALME-3M melanoma) of 0.765 µM and a TGI (MALME-3M melanoma) of 15.6 µM. It also gave a GI50 (A549 NSCLC) of 0.181 µM, a TGI (A549 NSCLC) greater than 44.5 µM and a GI50 (PC-3 prostate) of 0.0576 µM. For the same compound, the TGI (PC-3 prostate) was 16 µM, the GI50 (ACHN renal) was 9.28 µM and the TGI (ACHN renal) was greater than 100 µM. The GI50 (RPMI-8226 leukemia) was 0.904 µM, the TGI (RPMI-8226 leukemia) was 22 µM and the GI50 (MOLT-4 leukemia) was 0.94 µM. It also gave a TGI (MOLT-4 leukemia) of 17.8 µM, a GI50 (DU-145 prostate) of 0.587 µM and a TGI (DU-145 prostate) of 18 µM. The GI50 (NCI-H23 lung) was 0.496 µM, the TGI (NCI-H23 lung) was 15 µM and the GI50 (NCI-H460 lung) was 0.0873 µM. It also gave a TGI (NCI-H460 lung) of 12.7 µM, a GI50 (MDA-MB-435) of 0.0479 µM and a TGI (MDA-MB-435) of 13.2 µM. It also gave a GI50 (NCI-H226 lung) of 1.75 µM, a TGI (NCI-H226 lung) of 24.5 µM and a GI50 (CCRF-CEM leukemia) of 0.442 µM. The TGI (CCRF-CEM leukemia) was greater than 66.8 µM, the GI50 (HS 578T breast) was 0.871 µM and the TGI (HS 578T breast) was 9.22 µM. For the same compound, the GI50 (HCC-2998 colon) was 0.668 µM, the TGI (HCC-2998 colon) was 11.2 µM and the GI50 (RXF 393 renal) was 3.44 µM. It also gave a TGI (RXF 393 renal) of 15.7 µM, a GI50 (NCI/ADR-RES ovarian) of 75.8 µM and a TGI (NCI/ADR-RES ovarian) greater than 100 µM. The GI50 (M14 melanoma) was 0.668 µM, the TGI (M14 melanoma) was 15.5 µM and the GI50 (SR leukemia) was 0.748 µM. It also gave a TGI (SR leukemia) greater than 42.7 µM, a GI50 (CAKI-1 renal) of 21.8 µM and a TGI (CAKI-1 renal) greater than 78.5 µM. The GI50 (BT-549 breast) was 0.506 µM, the TGI (BT-549 breast) was 14.5 µM and the GI50 (EKVX NSCLC) was 0.307 µM. The TGI (EKVX NSCLC) was 19.3 µM, the GI50 (HL-60(TB) leukemia) was 1.14 µM and the TGI (HL-60(TB) leukemia) was 10.7 µM. For the same compound, the GI50 (SK-MEL-5 melanoma) was 0.474 µM, the TGI (SK-MEL-5 melanoma) was 13 µM and the GI50 (COLO 205 colon) was 1.44 µM. For the same compound, the TGI (COLO 205 colon) was 18.4 µM, the GI50 (T-47D breast) was 6.19 µM and the TGI (T-47D breast) was 23.1 µM. The GI50 (SF-539 CNS) was 0.0846 µM, the TGI (SF-539 CNS) was 5.76 µM and the GI50 (OVCAR-8 ovarian) was 0.612 µM. The TGI (OVCAR-8 ovarian) was 19.5 µM, the GI50 (SN12C renal) was 0.559 µM and the TGI (SN12C renal) was 13.1 µM. The GI50 (UACC-62 melanoma) was 0.527 µM, the TGI (UACC-62 melanoma) was 12.3 µM and the GI50 (HCT-15 colon) was 21.6 µM. It also gave a TGI (HCT-15 colon) greater than 100 µM, a GI50 (UO-31 renal) of 31.5 µM and a TGI (UO-31 renal) of 97.5 µM. The GI50 (786-0 renal) was 0.289 µM, the TGI (786-0 renal) was 13.3 µM and the GI50 (HCT-116 colon) was 0.0747 µM. The TGI (HCT-116 colon) was 14.3 µM, the GI50 (SK-MEL-2 melanoma) was 11.3 µM and the TGI (SK-MEL-2 melanoma) was 27.7 µM. For the same compound, the GI50 (OVCAR-4 ovarian) was 1.76 µM, the TGI (OVCAR-4 ovarian) was 38.2 µM and the GI50 (TK-10 renal) was 3.66 µM. It also gave a TGI (TK-10 renal) of 25.9 µM, a GI50 (A498 renal) of 2.67 µM and a TGI (A498 renal) of 15.6 µM. For the same compound, the GI50 (OVCAR-5 ovarian) was 0.794 µM, the TGI (OVCAR-5 ovarian) was 23.1 µM and the GI50 (SK-OV-3 ovarian) was 1.22 µM. It also gave a TGI (SK-OV-3 ovarian) of 20.9 µM, a GI50 (SK-MEL-28 melanoma) of 2.34 µM and a TGI (SK-MEL-28 melanoma) of 17.4 µM. For the same compound, the GI50 (KM12 colon) was 0.421 µM and the TGI (KM12 colon) was 7.26 µM.
